In US10478501B2, “Method of treating disorders using a pharmaceutical composition of oligopeptides” (Merck Patent GmbH, priority 2011, dated 2019):

Assay: Water Vapour Sorption (dynamic vapour experiments)
Assay type: physicochemical
Conditions: 25° C., up to 98% relative humidity, acc. to Ph. Eur. criteria
Excerpt: Preferably, the anhydrates as described herein and especially the crystalline form A1 can be characterised, alternatively or additionally, by dynamic vapour experiments. The results can be obtained by standard techniques as described in Rolf Hilfiker, ‘Polymorphism in the Pharmaceutical Industry’, Wiley-VCH. Weinheim 2006 (Chapter 9: Water Vapour Sorption, and references therein). […] Eur. criteria.

For CC(C)[C@H]1C(=O)N[C@@H](CCCNC(=N)N)C(=O)NCC(=O)N[C@@H](CC(=O)O)C(=O)N[C@H](Cc2ccccc2)C(=O)N1C [crystalline form A1, cyclo-(Arg-Gly-Asp-DPhe-NMeVal)], the “hygroscopicity (Water Vapour Sorption behaviour)” value was “non-hygroscopic”.
